Our source for the Animal deaths and IC50 values is patent US7087623B2, “Thiazole and other heterocyclic ligands for mammalian dopamine, muscarinic and serotonin receptors and transporters, and methods of use thereof” (Sepracor Inc., priority 2001, dated 2006).

The subject of one data set is ICR male or female mice. The data set can be described thus: Acute toxicity evaluation in mice, intravenous. The conditions noted are these: intravenous doses of 5 and 10 mg/kg, deaths recorded at 3, 24, 48 and 72 hours. The data set is classed as in vivo, mouse. The method, then:
Compound 20 was formulated in 5% dextrose in water (w/v)/PEG 400 (4:1 v/v) to a maximum concentration of 8 mg/mL. The solution was passed through a 0.8/0.2 micron filter before administration.
ICR male or female mice weighing 20–22 g were maintained in a hygienic environment under controlled temperature (22–24° C.) and humidity (60–80%) with 12-hour light/dark cycles for at least one week. Free access to standard lab chow for mice and tap water was granted.
Three mice/dose (5 and 10 mg/kg) were intravenously administered test compound. Animal deaths were recorded at 3, 24, 48 and 72 hours after treatment.

In data set [1] the target is T1, human serotonin 5-HT2A receptor (Homo sapiens, UniProt P28223).
T1 construct: expressed in transfected cells; host or cells: CHO-K1
T1 sequence (P28223 whole entry): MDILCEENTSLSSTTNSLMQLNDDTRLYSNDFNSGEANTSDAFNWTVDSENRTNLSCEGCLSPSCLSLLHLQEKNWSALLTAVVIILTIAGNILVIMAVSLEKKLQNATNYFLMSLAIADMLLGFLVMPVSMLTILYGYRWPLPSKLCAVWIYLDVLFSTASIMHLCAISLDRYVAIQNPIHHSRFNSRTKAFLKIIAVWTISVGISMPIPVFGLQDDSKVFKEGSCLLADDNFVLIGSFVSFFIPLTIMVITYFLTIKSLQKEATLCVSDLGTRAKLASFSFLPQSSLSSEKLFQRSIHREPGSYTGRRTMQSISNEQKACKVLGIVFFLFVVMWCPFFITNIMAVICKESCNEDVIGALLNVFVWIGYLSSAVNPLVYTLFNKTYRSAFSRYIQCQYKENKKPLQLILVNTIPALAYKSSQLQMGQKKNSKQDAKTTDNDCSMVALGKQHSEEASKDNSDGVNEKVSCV
Kind of data set: Radioligand binding assay, human 5-HT2A receptors ([3H]Ketanserin). The conditions noted are these: human 5-HT2a, Example 16 table.

Data set [2] deals with T2, human serotonin 5-HT2B receptor (Homo sapiens, UniProt P41595).
T2 construct: expressed in transfected cells; host or cells: CHO-K1
T2 sequence (P41595 whole entry): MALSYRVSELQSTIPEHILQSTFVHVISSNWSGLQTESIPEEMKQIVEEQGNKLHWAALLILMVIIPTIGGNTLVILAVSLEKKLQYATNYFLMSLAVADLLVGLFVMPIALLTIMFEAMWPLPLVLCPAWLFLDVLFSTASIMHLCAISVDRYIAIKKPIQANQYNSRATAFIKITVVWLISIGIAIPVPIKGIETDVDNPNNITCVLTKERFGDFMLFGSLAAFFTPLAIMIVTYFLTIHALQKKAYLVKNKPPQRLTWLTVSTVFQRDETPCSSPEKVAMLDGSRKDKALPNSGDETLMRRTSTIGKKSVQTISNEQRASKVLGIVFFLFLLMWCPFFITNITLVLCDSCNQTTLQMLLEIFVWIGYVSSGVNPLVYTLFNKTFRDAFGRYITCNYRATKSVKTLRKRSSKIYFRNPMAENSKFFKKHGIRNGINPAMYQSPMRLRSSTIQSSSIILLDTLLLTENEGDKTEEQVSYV
Kind of data set: Radioligand binding assay, human 5-HT2B receptors ([3H]LSD). As for the experimental part:
This assay measures binding of [^3H]LSD to human serotonin 5-HT2B receptors. CHO-K1 cells stably transfected with a plasmid encoding the human serotonin 5-HT2B receptor were used to prepare membranes in modified Tris-HCl pH 7.4 buffer using standard techniques. […] Non-specific binding was estimated in the presence of 10 μM serotonin. Membranes were filtered and washed 3 times and the filters were counted to determine [^3H]LSD specifically bound. See Bonhaus, D. W. et al. “The pharmacology and distribution of human 5-hydroxytryptamine2B (5-HT2B) receptor gene products: comparison with 5-HT2A and 5-HT2C receptors” Brit.
The human 5-HT2b screen was conducted according to Wolf, W. A. et al. J. Neurochem.

For data set [3], the target named is T3, human serotonin 5-HT2C receptor (Homo sapiens, UniProt P28335).
T3 construct: expressed in transfected cells; host or cells: CHO-K1
T3 sequence (P28335 33-458): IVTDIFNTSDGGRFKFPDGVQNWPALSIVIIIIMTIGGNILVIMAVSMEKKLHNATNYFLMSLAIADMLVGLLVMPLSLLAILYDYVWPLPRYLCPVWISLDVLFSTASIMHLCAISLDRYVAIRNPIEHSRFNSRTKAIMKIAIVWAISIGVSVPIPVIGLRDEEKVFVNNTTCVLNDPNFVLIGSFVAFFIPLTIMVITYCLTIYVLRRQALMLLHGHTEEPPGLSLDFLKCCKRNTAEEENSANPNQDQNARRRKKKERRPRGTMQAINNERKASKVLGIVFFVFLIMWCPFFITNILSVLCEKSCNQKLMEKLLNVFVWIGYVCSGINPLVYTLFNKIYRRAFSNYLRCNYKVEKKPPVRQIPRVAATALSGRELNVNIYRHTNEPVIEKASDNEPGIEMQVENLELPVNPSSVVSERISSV
Kind of data set: Radioligand binding assay, human 5-HT2C receptors ([3H]Mesulergine). The conditions noted are these: human 5-HT2c, Example 16 table. The gist of the method:
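Membranes from CHO-K1 cells stably expressing human 5-HT2C receptor were prepared in modified Tris-HCl pH 7.7 buffer. Non-specific binding was defined with 1 μM mianserin.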

Data set [4] has as its target T4, human serotonin 5-HT6 receptor (Homo sapiens, UniProt P50406).
T4 construct: expressed in transfected cells; host or cells: HeLa/E6-7
Kind of data set: Radioligand binding assay, human 5-HT6 receptors ([3H]LSD). The conditions noted are these: Example 16 table. The gist of the method: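 Membranes from HeLa/E6–7 cells stably expressing human 5-HT6, in modified Tris-HCl pH 7.4, incubated (30 μg) with 1.5 nM [3H]LSD for 120 min at 37° C. Non-specific binding defined with 5 μM 5-HT; bound ligand measured by filtration and counting.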

The target in data set [5] is T5, human dopamine D3 receptor (Homo sapiens, UniProt P35462).
T5 construct: expressed in transfected cells; host or cells: CHO
T5 sequence (P35462 whole entry): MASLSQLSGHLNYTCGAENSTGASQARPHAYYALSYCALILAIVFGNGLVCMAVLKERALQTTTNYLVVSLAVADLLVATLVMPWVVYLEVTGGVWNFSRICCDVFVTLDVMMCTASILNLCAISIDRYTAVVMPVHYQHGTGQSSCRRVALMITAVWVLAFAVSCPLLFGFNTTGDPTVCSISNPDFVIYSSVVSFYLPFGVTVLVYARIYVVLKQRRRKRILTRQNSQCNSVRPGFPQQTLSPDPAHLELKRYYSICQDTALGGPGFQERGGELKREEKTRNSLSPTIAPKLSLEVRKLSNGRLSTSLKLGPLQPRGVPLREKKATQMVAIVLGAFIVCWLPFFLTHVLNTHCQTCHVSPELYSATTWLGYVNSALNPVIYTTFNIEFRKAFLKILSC
Kind of data set: Radioligand binding assay, human dopamine D3 receptors ([3H]Spiperone). The conditions noted are these: Example 20 table.

The target in data set [6] is T6, human dopamine transporter (Homo sapiens, UniProt Q01959).
T6 construct: expressed in transfected cells; host or cells: CHO-K1
T6 sequence (Q01959 whole entry): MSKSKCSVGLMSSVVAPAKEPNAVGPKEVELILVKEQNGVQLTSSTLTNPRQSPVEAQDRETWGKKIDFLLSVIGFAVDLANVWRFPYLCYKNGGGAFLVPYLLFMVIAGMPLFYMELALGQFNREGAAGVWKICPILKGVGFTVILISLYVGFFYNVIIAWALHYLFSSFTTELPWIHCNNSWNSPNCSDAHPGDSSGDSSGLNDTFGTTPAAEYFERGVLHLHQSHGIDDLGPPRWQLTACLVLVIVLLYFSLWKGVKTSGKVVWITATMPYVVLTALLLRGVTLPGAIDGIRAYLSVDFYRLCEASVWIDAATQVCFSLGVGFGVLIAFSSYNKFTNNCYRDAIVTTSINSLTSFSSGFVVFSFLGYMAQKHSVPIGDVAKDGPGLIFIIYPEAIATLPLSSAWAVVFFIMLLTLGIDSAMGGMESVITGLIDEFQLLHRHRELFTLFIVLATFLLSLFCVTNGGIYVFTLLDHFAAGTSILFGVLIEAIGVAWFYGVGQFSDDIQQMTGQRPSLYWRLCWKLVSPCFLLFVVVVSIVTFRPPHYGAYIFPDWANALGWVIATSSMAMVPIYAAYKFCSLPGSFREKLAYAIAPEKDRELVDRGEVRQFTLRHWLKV
Kind of data set: Binding to human dopamine transporter ([125I]RTI-55). As for the experimental part: CHO-K1 cell membranes stably transfected with a plasmid encoding the human dopamine transporter were prepared in modified Tris-HCl pH 7.4 buffer using standard techniques. […] Non-specific binding was estimated in the presence of 10 μM nomifensine. […] Trends. […]

Setting [7] is: human 5-HT2b, Example 16 table, read-out: IC50 (nM) 5-HT2b.
[8] abbreviates: human 5-HT6, read-out: IC50 (nM) 5-HT6.
Where [9] appears, read: read-out: IC50 (nM) Against Human D3 Receptors.
Setting [10] is: human, Example 101 table, read-out: IC50 (nM) DAT.
The mark [11] stands for this setting: IC50 (nM) Against Human D3 Receptors.

Where two headings read alike, the source gives them in different places.

T4 sequence (P50406 whole entry): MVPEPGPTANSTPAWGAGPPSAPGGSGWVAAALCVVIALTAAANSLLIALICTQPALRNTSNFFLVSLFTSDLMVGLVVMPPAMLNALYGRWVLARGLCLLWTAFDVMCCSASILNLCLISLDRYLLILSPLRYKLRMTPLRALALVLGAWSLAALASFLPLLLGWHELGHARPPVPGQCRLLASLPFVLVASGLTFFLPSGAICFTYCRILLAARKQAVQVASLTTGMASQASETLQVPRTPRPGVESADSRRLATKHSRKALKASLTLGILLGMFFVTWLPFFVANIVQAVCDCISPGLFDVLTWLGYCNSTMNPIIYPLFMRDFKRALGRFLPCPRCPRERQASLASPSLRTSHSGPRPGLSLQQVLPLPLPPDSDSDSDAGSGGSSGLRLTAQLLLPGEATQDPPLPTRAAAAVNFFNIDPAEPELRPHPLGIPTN

Consider `CCN(CC)CCCNc1nc(C2(c3ccc(Cl)cc3)CCC2)cs1.O=C(O)CC(O)(CC(=O)O)C(=O)O` [Compound 20, N′-{4-[1-(4-chlorophenyl)cyclobutyl]thiazol-2-yl}-N,N-diethylpropane-1,3-diamine citrate salt], for which the Animal deaths entry with ICR male or female mice was “no deaths were observed”.
Turning to `COc1ccc(C2(c3csc(N4CCN(C)CC4)n3)CCOCC2)cc1OC` [Compound 74], the IC50 in data set [1] (read-out: IC50 (nM) 5-HT2a), in data set [2] (setting [7]), in data set [3] (read-out: IC50 (nM) 5-HT2c), in data set [4] (setting [8]), in data set [5] (setting [9]) and in data set [6] (setting [10]) was more than 1000 nM throughout.
Turning to `CN1CCN(c2nc(C3(c4ccc(Cl)cc4)CCOCC3)cs2)CC1` [Compound 29, 1-{4-[4-(4-chlorophenyl)tetrahydropyran-4-yl]-thiazol-2-yl}-4-methylpiperazine], the 50% inhibitory concentration (IC50) in data set [1] (IC50 (nM) 5-HT2a) was more than 1000 nM; in data set [2], more than 1000 nM; in data set [3] (IC50 (nM) 5-HT2c), less than 1000 nM; in data set [4] (IC50 (nM) 5-HT6, human 5-HT6), less than 100 nM; in data set [5] (setting [11]), less than 1000 nM; in data set [6], less than 1000 nM.
As to `CCN1CCCC1CNc1nc(C2(c3ccc(Cl)cc3)CCC2)cs1` (stereo not shown) [Compound 25, {4-[1-(4-chlorophenyl)cyclobutyl]thiazol-2-yl}-(1-ethylpyrrolidin-2-ylmethyl)amine], the IC50 in data set [1] (read-out: IC50 (nM) 5-HT2a) is less than 1000 nM; in data set [2] (setting [7]) it was less than 1000 nM; in data set [3] (read-out: IC50 (nM) 5-HT2c), less than 1000 nM; in data set [4] (setting [8]), less than 1000 nM; in data set [5] (setting [9]), less than 1000 nM; in data set [6] (setting [10]), more than 1000 nM.
On to `CN1CCCC1CCNc1nc(C2(c3ccc(Cl)cc3)CCC2)no1` (stereo not shown) [Compound 26, {3-[1-(4-Chlorophenyl)cyclobutyl]-[1,2,4]oxadiazol-5-yl}-[2-(1-methyl-pyrrolidin-2-yl)-ethyl]-amine], for which the IC50 in data set [1] (IC50 (nM) 5-HT2a) was more than 1000 nM; in data set [2] it was more than 1000 nM; in data set [3] (IC50 (nM) 5-HT2c), less than 1000 nM; in data set [4] (IC50 (nM) 5-HT6, human 5-HT6), more than 1000 nM; in data set [5] (setting [11]) it was more than 1000 nM; in data set [6] it was less than 1000 nM.
